Measurements taken from patent US10864163B2, “Therapeutic agents and delivery with microspheres” (UCL Business PLC, priority 2013, dated 2020).
Entries after “also recorded” stand apart in the source; their conditions may differ.

Key:
[1] = Attachment of API (doxorubicin) to wetted and non-wetted TIPS microspheres; type: physicochemical; details: doxorubicin 0.5 mg/ml in water, overnight at room temperature, 150 rpm, centrifuged at 13000 rpm for 20 seconds
Procedure: 100 mg of TIPS microspheres was added to a 7 ml plastic container. The microspheres were wetted with 70% ethanol for 1 minute. The alcohol was removed and the microspheres washed with 5 ml deionised water. 1 ml of doxorubicin (0.5 mg/ml in water) was added to the container. The microspheres and doxorubicin solution were mixed by pipetting and incubated overnight at room temperature with agitation at 150 rpm on an orbital shaker. Control non-wetted microspheres were treated in the same manner. The microspheres were centrifuged at 13000 rpm for 20 seconds.

[2] = Release of API from doxorubicin-loaded wetted TIPS microspheres (FIG. 11d); type: physicochemical; details: doxorubicin attached to pre-wetted TIPS microspheres

COc1cccc2c1C(=O)c1c(O)c3c(c(O)c1C2=O)C[C@@](O)(C(=O)CO)C[C@@H]3O[C@H]1C[C@H](N)[C@H](O)[C@H](C)O1 [doxorubicin]
binding of doxorubicin to the surface of non-wetted, hydrophobic microspheres ([1]; control non-wetted microspheres): separated from the non-wetted samples; also recorded: does not bind to the surface of non-wetted, hydrophobic microspheres | binding of doxorubicin to the surface of wetted TIPS microspheres ([1]; microspheres pre-wetted with 70% ethanol): remained bound to the surface of the wetted microspheres; also recorded: binds well to the surface of pre-wetted TIPS microspheres | release of the API from wetted TIPS microspheres [2]: controlled release of the API is observed over a prolonged period
